From patent US20060142247A1, “Tricyclic heterocycles” (priority 2004, published 2006) come the findings set out here.

In this test the test system is HCT 116 cells. Put plainly: Viability assay HCT 116 cells (CellTiter-Glo). Format: cell-based. To be noted: Homo sapiens, HCT-116, 120 h, HCT 116 human colon carcinoma cells, 5 days incubation, CellTiter-Glo luminescence. The protocol:
Viability Assay—HCT 116 Cells
A viability assay was performed using the CellTiter-Glo® Luminescent Cell Viability Assay (see Promega Corporation's Technical Bulletin No. 288, pp. 1-11 [revised 2/04] which is hereby incorporated by reference in its entirety). This assay is a homogeneous method of determining the number of viable cells in culture based on quantitation of the ATP present, an indicator of metabolically active cells. The assay is designed for use with multiwell formats, making it ideal for automated high-throughput screening (HTS), cell proliferation and cytotoxicity assays. The homogeneous assay procedure involves adding a single reagent (containing luciferase, luciferan substrate, and buffer) directly to cells cultured in serum-supplemented medium. Cell washing, removal of medium and multiple pipetting steps are not required. The system detects as few as 15 cells/well in a 384-well format in 10 minutes after adding reagent and mixing.
The homogeneous “add-mix-measure” format results in cell lysis and generation of a luminescent signal proportional to the amount of ATP present. The amount of ATP is directly proportional to the number of cells present in culture. The above-referenced assay generates a “glow-type” luminescent signal, produced by the luciferase reaction, which has a half-life generally greater than five hours, depending on cell type and medium used. The extended half-life eliminates the need to use reagent injectors and provides flexibility for continuous or batch mode processing of multiple plates. The unique homogeneous format avoids errors that may be introduced by other ATP measurement methods that require multiple steps.
HCT 116 cells (human colon carcinoma, ATCC-No. CCl-247) were cultivated in RPMI 1640 medium with GlutaMAX™ I (cell culture media that contains L-Alanyl-L-Glutamine [a stabilized a form/source of L-Glutamine] from Invitrogen, Cat-No. 61870-010), 2.5% Fetal Calf Serum (FCS, Sigma Cat-No. F4135 (FBS)); 100 Units/ml penicillin/100 μg/ml streptomycin (=Pen/Strep from Invitrogen Cat. No. 15140). For the assay the cells were seeded in 384 well plates, 1000 cells per well, in the same medium. The next day the test compounds were added in various concentrations ranging from 30 μM to 0.0015 μM (10 concentrations, 1:3 diluted). After 5 days the viability assay was done according to the instructions of the manufacturer. In brief: the cell-plate was equilibrated to room temperature for approximately 30 minutes and than the reagent (containing luciferase, luciferan substrate, and buffer) was added. The contents were carefully mixed for 15 minutes to induce cell lysis. After 45 minutes the luminescent signal was measured in Victor 2, (scanning multiwell spectrophotometer, Wallac).
Medium: RPMI 1640 with cell culture media containing L-Alanyl-L-Glutamine [GlutaMAX™ I (Invitrogen, Cat-Nr. 61870)], 5% FCS (Sigma Cat.-No. F4135), Pen/Strep (Invitrogen, Cat No. 15140). • HCT116 (ATCC-No. CCl-247): 1000 cells in 60 μl per well of 384 well plate (Greiner 781098, μClear-plate white) • After seeding incubate plates 24 h at 37° C., 5% CO2 2nd. Day: Induction (Treatment with Compounds, 10 Concentrations):
In order to achieve a final concentration of 30 μM as highest concentration […] of 10 mM compound stock solution were added directly to 163 μl media. Then step e) of the dilution procedure described below, was followed.
(In ATP-based viability assays light output follows the ATP content of the culture.)
In general, IC50 refers to the concentration that gives 50% inhibition. High values mean weaker potency, low ones greater potency. `CCN1C(=O)C(C)(C)c2cc3nc(-c4n[nH]c5cc(C(=O)Nc6ccccc6)ccc45)[nH]c3cc21` [Example 108, 3-(5-Ethyl-7,7-dimethyl-6-oxo-3,5,6,7-tetrahydro-imidazo[4,5-f]indol-2-yl)-1H-indazole-6-carboxylic acid phenylamide]: the IC50 is 100 to 1000 nM. In the case of `CCN1C(=O)C(C)(C)c2cc3nc(-c4n[nH]c5cc(C(N)=O)ccc45)[nH]c3cc21` [Example 110, 3-(5-Ethyl-7,7-dimethyl-6-oxo-3,5,6,7-tetrahydro-imidazo[4,5-f]indol-2-yl)-1H-indazole-6-carboxylic acid amide], the IC50 is 1000 to 10000 nM. As for `CCN1C(=O)C(C)(C)c2cc3[nH]c(-c4n[nH]c5ccc(NC(=O)Cc6ccccc6C)cc45)nc3cc21` [Example 113, N-[3-(5-Ethyl-7,7-dimethyl-6-oxo-1,5,6,7-tetrahydro-imidazo[4,5-f]indol-2-yl)-1H-indazol-5-yl]-2-o-tolyl-acetamide], the figure is 100 to 1000 nM; as for `CCN1C(=O)C(C)(C)c2cc3[nH]c(-c4n[nH]c5ccc(NC(=O)c6ccccn6)cc45)nc3cc21` [Example 116, Pyridine-2-carboxylic acid [3-(5-ethyl-7,7-dimethyl-6-oxo-1,5,6,7-tetrahydro-imidazo[4,5-f]indol-2-yl)-1H-indazol-5-yl]-amide], 100 to 1000 nM; as for `CCN1C(=O)C(C)(C)c2cc3[nH]c(-c4n[nH]c5ccc(NC(=O)Cc6ccc(C)cc6)cc45)nc3cc21` [Example 117, N-[3-(5-Ethyl-7,7-dimethyl-6-oxo-1,5,6,7-tetrahydro-imidazo[4,5-f]indol-2-yl)-1H-indazol-5-yl]-2-p-tolyl-acetamide], 100 to 1000 nM.

Consider `CCC(=O)Nc1ccc2[nH]nc(-c3nc4cc5c(cc4[nH]3)C(C)(C)C(=O)N5CC)c2c1` [Example 122, N-[3-(5-Ethyl-7,7-dimethyl-6-oxo-1,5,6,7-tetrahydro-imidazo[4,5-f]indol-2-yl)-1H-indazol-5-yl]-propionamide], for which the 50% inhibitory concentration (IC50) was in the range of 100 to 1000 nM. As for `CCN1C(=O)C(C)(C)c2cc3[nH]c(-c4n[nH]c5ccc(NC(=O)N6CCOCC6)cc45)nc3cc21` [Example 128, Morpholine-4-carboxylic acid [3-(5-ethyl-7,7-dimethyl-6-oxo-1,5,6,7-tetrahydro-imidazo[4,5-f]indol-2-yl)-1H-indazol-5-yl]-amide], the figure is 1000 to 10000 nM; as for `CCN1C(=O)C(C)(C)c2cc3[nH]c(-c4n[nH]c5ccc(NC(=O)OCc6ccccc6)cc45)nc3cc21` [Example 130, [3-(5-Ethyl-7,7-dimethyl-6-oxo-1,5,6,7-tetrahydro-imidazo[4,5-f]indol-2-yl)-1H-indazol-5-yl]-carbamic acid benzyl ester], 100 to 1000 nM. For the compound `CCN1C(=O)C(C)(C)c2cc3[nH]c(-c4n[nH]c5ccc(NS(=O)(=O)c6ccccc6)cc45)nc3cc21` [Example 132, N-[3-(5-Ethyl-7,7-dimethyl-6-oxo-1,5,6,7-tetrahydro-imidazo[4,5-f]indol-2-yl)-1H-indazol-5-yl]-benzenesulfonamide], the IC50 lay in the range of 100 to 1000 nM.

Regarding `CCN1C(=O)C(C)(C)c2cc3[nH]c(-c4n[nH]c5ccc(NS(=O)(=O)c6ccccc6[N+](=O)[O-])cc45)nc3cc21` [Example 134, N-[3-(5-Ethyl-7,7-dimethyl-6-oxo-1,5,6,7-tetrahydro-imidazo[4,5-f]indol-2-yl)-1H-indazol-5-yl]-2-nitro-benzenesulfonamide], the half-inhibitory concentration (IC50) fell in the range of 100 to 1000 nM. As for `CCN1C(=O)C(C)(C)c2cc3[nH]c(-c4n[nH]c5ccc(NS(=O)(=O)c6ccc(F)cc6)cc45)nc3cc21` [Example 137, N-[3-(5-Ethyl-7,7-dimethyl-6-oxo-1,5,6,7-tetrahydro-imidazo[4,5-f]indol-2-yl)-1H-indazol-5-yl]-4-fluoro-benzenesulfonamide], the figure is 100 to 1000 nM; as for `CCN1C(=O)C(C)(C)c2cc3[nH]c(-c4n[nH]c5ccc(NS(=O)(=O)c6cccc(Cl)c6)cc45)nc3cc21` [Example 138, 3-Chloro-N-[3-(5-ethyl-7,7-dimethyl-6-oxo-1,5,6,7-tetrahydro-imidazo[4,5-f]indol-2-yl)-1H-indazol-5-yl]-benzenesulfonamide], 100 to 1000 nM. As for `CCN1C(=O)C(C)(C)c2cc3[nH]c(-c4n[nH]c5ccc(NS(=O)(=O)c6ccccc6S(C)(=O)=O)cc45)nc3cc21` [Example 140, N-[3-(5-Ethyl-7,7-dimethyl-6-oxo-1,5,6,7-tetrahydro-imidazo[4,5-f]indol-2-yl)-1H-indazol-5-yl]-2-methanesulfonyl-benzenesulfonamide], the figure is 100 to 1000 nM; as for `CCN1C(=O)C(C)(C)c2cc3nc(-c4n[nH]c5ccc(NS(=O)(=O)c6cc(F)ccc6F)cc45)[nH]c3cc21` [Example 141, N-[3-(5-Ethyl-7,7-dimethyl-6-oxo-3,5,6,7-tetrahydro-imidazo[4,5-f]indol-2-yl)-1H-indazol-5-yl]-2,5-difluoro-benzenesulfonamide], 100 to 1000 nM; as for `CC(C)N1C(=O)C(C)(C)c2cc3[nH]c(-c4n[nH]c5ccc(NS(=O)(=O)c6ccc(F)cc6)cc45)nc3cc21` [Example 142, 4-Fluoro-N-[3-(5-isopropyl-7,7-dimethyl-6-oxo-1,5,6,7-tetrahydro-imidazo[4,5-f]indol-2-yl)-1H-indazol-5-yl]-benzenesulfonamide], 100 to 1000 nM. As for `CC(C)N1C(=O)C(C)(C)c2cc3[nH]c(-c4n[nH]c5ccc(NS(=O)(=O)c6ccccc6S(C)(=O)=O)cc45)nc3cc21` [Example 143, N-[3-(5-Isopropyl-7,7-dimethyl-6-oxo-1,5,6,7-tetrahydro-imidazo[4,5-f]indol-2-yl)-1H-indazol-5-yl]-2-methanesulfonyl-benzenesulfonamide], the figure is 100 to 1000 nM; as for `CC(C)N1C(=O)C(C)(C)c2cc3[nH]c(-c4n[nH]c5ccc(NS(=O)(=O)c6ccccc6[N+](=O)[O-])cc45)nc3cc21` [Example 144, N-[3-(5-Isopropyl-7,7-dimethyl-6-oxo-1,5,6,7-tetrahydro-imidazo[4,5-f]indol-2-yl)-1H-indazol-5-yl]-2-nitro-benzenesulfonamide], 100 to 1000 nM. Consider `CCN1C(=O)C(C)(C)c2cc3nc(-c4n[nH]c5ccc(NC(C)=O)cc45)[nH]c3cc21` [Example 145, N-[3-(5-Ethyl-7,7-dimethyl-6-oxo-3,5,6,7-tetrahydro-imidazo[4,5-f]indol-2-yl)-1H-indazol-5-yl]-acetamide], for which the 50% inhibitory concentration (IC50) was 1000 to 10000 nM.
